Type in all cases: biochemical
One test addresses human ENPP2 (Homo sapiens (Human), UniProt Q13822). Briefly: Inhibitory activity on human ENPP2 (FS-3 assay). The method, then:
Two-fold dilution of each test compound solution (10 μM, 100% dimethyl sulfoxide) is carried out on 96-well V bottom plate (Costar 3363). After ten-fold dilution of each the test compound solution (100% dimethyl sulfoxide) with deionized distilled water, 10 μL of the diluted each mpound solution (10% dimethyl sulfoxide) was aliquoted to a black flat bottom 96-well plate (Costar 3915).

Test [1] has as its system LPA production in blood serum caused by autotoxin. Briefly: Inhibitory activity on LPA production in mouse blood serum. The following applies: mouse blood serum (m), 18:1 LPC, 3 hours at 37° C. The protocol: After 100-fold dilution of each test compound solution (5 μL) (10 mM, 100%, dimethyl sulfoxide) with 495 μL of methanol, 3 μL of the diluted methanol solution (1% dimethyl sulfoxide) was mixed with 57 μL of human or mouse blood serum solution in a 1.5 mL tube. […] Subsequently, a solution prepared by diluting 10 mg/mL 18:1 LPC solution (50% ethanol) with blood serum to have concentration of 375 μg/mL was aliquoted in an amount of 2 μL to each tube so as to have 50 μL. Each tube was kept for 3 hours in a water bath at 37° C. to allow a reaction. To the tube obtained after the reaction, 100 μL of 0.5 μM 17:0 LPA solution (chloroform/methanol/water=65/35/8) was aliquoted and mixed therein. Centrifuge was carried out for 10 minutes using a centrifuge at conditions of 14,000 rpm and 4° C. 100 μL of 50% methanol solution is aliquoted first to a 96-well polypropylene plate (Agilent Technology 5042-1385), and the supernatant (50 μL) in a tube after the centrifuge was carefully transferred to the plate followed by mixing. After covering it with Well cap (Thermo 276011), analysis was carried out by LC-MS/MS (Agilent 1260).
In the following Table 3, the mouse blood serum was described as (m) and human blood serum was described as (h).

Another test deals with human ATX (Homo sapiens (Human), UniProt Q13822). The experiment in a line: Bis-pNPP assay. The conditions noted are these: bis-pNPP substrate, read-out: Enzymatic assay (IC50) bis-pNPP. The protocol:
Eight-fold dilution of each test compound solution (10 μM, 100% dimethyl sulfoxide) is carried out on 96-well V bottom plate (Costar 3363). After […] of each test compound solution (100% dimethyl sulfoxide) with deionized distilled water, 10 μL of the diluted each test compound solution (10% dimethyl sulfoxide) was aliquoted to a black flat bottom 96-well plate (Costar 3915). 50 μL of 60 mM Tris-HCl (pH9.0) buffer was added thereto, and subsequently 20 μL of 3.75 nM human ATX solution (buffer solution: 50 mM Tris-HCl (pH8.5), 5 mM CaCl2, 2.5 mM MgCl2, 0.01% Brij35) and 20 μL of 25 mM Bis-pNPP (bis(p-Nitrophenyl)-phosphate sodium salt) solution (buffer solution: 50 mM Tris-HCl (pH9.0)) were added thereto, respectively, followed by mixing. […] Furthermore, IC50 values that are shown in Table 3 were calculated using Grafit5 Software based on the inhibitory activity percentage ratio.

Setting [2] is: human ENPP2, FS-3 substrate, 30 min at 37° C., read-out: IC50.
[3] abbreviates: FS-3 assay, same process as Test example 1, read-out: Enzymatic assay (IC50) FS-3.

Structures can show the parent of a compound that is named as a salt. Where two headings read alike, the source gives them in different places.

A word on the IC50: it is the concentration needed to halve the response being measured. Turning to `O=C(NCCC(=O)N1CCc2[nH]nnc2C1)c1cnc(NCc2cccc(OC(F)(F)F)c2)nc1` [Compound 2, N-(3-oxo-3-{1H,4H,5H,6H,7H-[1,2,3]triazolo[4,5-c]pyridin-5-yl}propyl)-2-({[3-(trifluoromethoxy)phenyl]methyl}amino)pyrimidine-5-carboxamide], the values for the IC50 (on human ENPP2 (setting [2]); in test [1]) were 2.1 nM and 23 nM, respectively.
As for `O=C(NC[C@H]1CN(c2ccc3[nH]c(=O)oc3c2)C(=O)O1)c1cnc(NCc2cccc(OC(F)(F)F)c2)nc1` [Compound 10, N-{[(5S)-2-oxo-3-(2-oxo-2,3-dihydro-1,3-benzoxazol-6-yl)-1,3-oxazolidin-5-yl]methyl}-2-({[3-(trifluoromethoxy)phenyl]methyl}amino)pyrimidine-5-carboxamide], the IC50 is 2.8 nM on human ENPP2 (read-out: IC50) and 10 nM in test [1].
Take `O=C(CCN1CCc2[nH]nnc2C1)N1CCN(c2cnc(NC3Cc4ccccc4C3)nc2)CC1` [Compound 12, 1-(4-{2-[(2,3-dihydro-1H-inden-2-yl)amino]pyrimidin-5-yl}piperazin-1-yl)-3-{1H,4H,5H,6H,7H-[1,2,3]triazolo[4,5-c]pyridin-5-yl}propan-1-one]: the values for the IC50 (on human ENPP2 (setting [2]); in test [1]) were 3.2 nM and 11 nM, respectively.
For `O=C(CCN1CCc2[nH]nnc2C1)N1CCN(c2cnc(NCc3cccc(OC(F)(F)F)c3)nc2)CC1` [Compound 13, 3-{1H,4H,5H,6H,7H-[1,2,3]triazolo[4,5-c]pyridin-5-yl}-1-{4-[2-({[3(trifluoromethoxy)phenyl]methyl}amino)pyrimidin-5-yl]piperazin-1-yl}propan-1-one], the figures for the IC50 (at human ENPP2 (setting [2]); in test [1]) were 3.7 nM and 13 nM, respectively.
Consider `O=C(CCN1CCc2[nH]nnc2C1)N1CCC(c2cnc(NC3Cc4ccccc4C3)nc2)CC1` [Compound 14, 1-(4-{2-[(2,3-dihydro-1H-inden-2-yl)amino]pyrimidin-5-yl}piperidin-1-yl)-3-{1H,4H,5H,6H,7H-[1,2,3]triazolo[4,5-c]pyridin-5-yl}propan-1-one], for which the IC50 on human ENPP2 (setting [2]) was 2.4 nM; in test [1], 8 nM.
For `CC(C)(CN1CCc2[nH]nnc2C1)C(=O)N1CCN(c2cnc(NC3Cc4ccccc4C3)nc2)CC1` [Compound 19, 1-(4-{2-[(2,3-dihydro-1H-inden-2-yl)amino]pyrimidin-5-yl}piperazin-1-yl)-2,2-dimethyl-3-{1H,4H,5H,6H,7H-[1,2,3]triazolo[4,5-c]pyridin-5-yl}propan-1-one], in that order: 3.1 nM and 25 nM.
For `O=C(CN1CCN(c2cnc(NC3Cc4ccccc4C3)nc2)CC1)N1CCc2[nH]nnc2C1` [Compound 20, 2-(4-{2-[(2,3-dihydro-1H-inden-2-yl)amino]pyrimidin-5-yl}piperazin-1-yl)-1-{1H,4H,5H,6H,7H-[1,2,3]triazolo[4,5-c]pyridin-5-yl}ethan-1-one], in that order: 2.6 nM and 29 nM.
For `O=C(CN1CCC(c2cnc(NC3Cc4ccccc4C3)nc2)CC1)N1CCc2[nH]nnc2C1` [Compound 22, 2-(4-{2-[(2,3-dihydro-1H-inden-2-yl)amino]pyrimidin-5-yl}piperidin-1-yl)-1-{1H,4H,5H,6H,7H-[1,2,3]triazolo[4,5-c]pyridin-5-yl}ethan-1-one], in that order: 2.9 nM and 57 nM.
For the compound `O=C(CN1CCN(c2cnc(NC3Cc4ccccc4C3)nc2)CC1)Nc1ccc2[nH]c(=O)oc2c1` [Compound 27, 2-(4-{2-[(2,3-dihydro-1H-inden-2-yl)amino]pyrimidin-5-yl}piperazin-1-yl)-N-(2-oxo-2,3-dihydro-1,3-benzoxazol-6-yl)acetamide], the IC50 amounted to 2.4 nM on human ENPP2 (setting [2]) and 10 nM in test [1].
On to `O=C(Cc1nnc(-c2cnc(NCc3cccc(OC(F)(F)F)c3)nc2)o1)N1CCc2[nH]nnc2C1` [Compound 34, 1-{1H,4H,5H,6H,7H-[1,2,3]triazolo[4,5-c]pyridin-5-yl}-2-{5-[2-({[3-(trifluoromethoxy)phenyl]methyl}amino)pyrimidin-5-yl]-1,3,4-oxadiazol-2-yl}ethan-1-one], for which the IC50 on human ENPP2 (setting [2]) turned out to be 2 nM; in test [1] it was 52 nM.
Take `O=C(Cn1cc(-c2cnc(NC3Cc4ccccc4C3)nc2)c(CN2CCNCC2)n1)N1CCc2[nH]nnc2C1` [Compound 89, 2-(4-{2-[(2,3-dihydro-1H-inden-2-yl)amino]pyrimidin-5-yl}-3-(piperazin-1-ylmethyl)-1H-pyrazol-1-yl)-1-{1H,4H,5H,6H,7H-[1,2,3]triazolo[4,5-c]pyridin-5-yl}ethan-1-one]: the IC50 on human ENPP2 (setting [2]) was 4.2 nM; in test [1] it was 21 nM.
On to `NC1CCC(c2nn(CC(=O)N3CCc4[nH]nnc4C3)cc2-c2cnc(NC3Cc4ccccc4C3)nc2)CC1` (stereo not shown) [Compound 99, 2-[3-(4-aminocyclohexyl)-4-{2-[(2,3-dihydro-1H-inden-2-yl)amino]pyrimidin-5-yl}-1H-pyrazol-1-yl]-1-{1H,4H,5H,6H,7H-[1,2,3]triazolo[4,5-c]pyridin-5-yl}ethan-1-one], for which the results for the IC50 at human ENPP2 (setting [3]) and at human ATX were 2.8 nM and 5.59 nM, respectively.
In the case of `Cc1nc(-c2cnc(NC3Cc4ccccc4C3)nc2)cn1CC(=O)N1CCc2[nH]nnc2C1` [Compound 107, 2-(4-{2-[(2,3-dihydro-1H-inden-2-yl)amino]pyrimidin-5-yl}-2-methyl-1H-imidazol-1-yl)-1-{1H,4H,5H,6H,7H-[1,2,3]triazolo[4,5-c]pyridin-5-yl}ethan-1-one], the IC50 on human ENPP2 (setting [3]) was 1.56 nM; at human ATX it was 4.87 nM.
For `O=C(Cc1cn(-c2ccc(Cl)cc2)c(-c2cnc(NC3Cc4ccccc4C3)nc2)n1)N1CCc2[nH]nnc2C1` [Compound 117, 2-[1-(4-chlorophenyl)-2-{2-[(2,3-dihydro-1H-inden-2-yl)amino]pyrimidin-5-yl}-1H-imidazol-4-yl]-1-{1H,4H,5H,6H,7H-[1,2,3]triazolo[4,5-c]pyridin-5-yl}ethan-1-one], in that order: 1.84 nM and above 100 nM.
With `O=C(CO)N1CCC(c2nn(CC(=O)N3CCc4[nH]nnc4C3)cc2-c2cnc(NC3Cc4ccccc4C3)nc2)CC1` [Compound 118, 1-[4-(4-{2-[(2,3-dihydro-1H-inden-2-yl)amino]pyrimidin-5-yl}-1-(2-oxo-2-{1H,4H,5H,6H,7H-[1,2,3]triazolo[4,5-c]pyridin-5-yl}ethyl)-1H-pyrazol-3-yl)piperidin-1-yl]-2-hydroxyethan-1-one], the IC50 on human ENPP2 (setting [3]) was below 1.56 nM; on human ATX, 5.3 nM.
Turning to `O=C(O)c1ccc(-c2nn(CC(=O)N3CCc4[nH]nnc4C3)cc2-c2cnc(NC3Cc4ccccc4C3)nc2)cc1` [Compound 119, 4-(4-{2-[(2,3-dihydro-1H-inden-2-yl)amino]pyrimidin-5-yl}-1-(2-oxo-2-{1H,4H,5H,6H,7H-[1,2,3]triazolo[4,5-c]pyridin-5-yl}ethyl)-1H-pyrazol-3-yl)benzoic Acid], the IC50 is below 1.56 nM at human ENPP2 (setting [3]) and 9.19 nM on human ATX.
Take `NNC(=O)C1=CCN(C(=O)Cc2nnc(-c3cnc(NC4Cc5ccccc5C4)nc3)o2)CC1` [Compound 120, 1-[2-(5-{2-[(2,3-dihydro-1H-inden-2-yl)amino]pyrimidin-5-yl}-1,3,4-oxadiazol-2-yl)acetyl]-1,2,3,6-tetrahydropyridine-4-carbohydrazide Hydrochloride]: the IC50 on human ENPP2 was 25.9 nM; at human ATX, 380 nM.

(Values after patent US10961242B2, “Compounds as autotaxin inhibitors and pharmaceutical compositions comprising the same” (LegoChem Biosciences, Inc., priority 2018, dated 2021).)
